In patent publication US9288983B2, “Compositions of dibromomalonamide and their use as biocides” (Dow Global Technologies LLC, priority 2009, dated 2016):
Read-outs that look alike come from different tables or passages of the source.

Columns and labels:
[1] = test system: mixture of Pseudomonas aeruginosa, Klebsiella pneumoniae, Staphylococcus aureus, and Bacillus subtilis; assay: Growth inhibition assay (microtiter plate, OD580); format: cell-based; details: for inhibition at 0.39 µg/mL / inhibition at 0.78 µg/mL / inhibition at 1.56 µg/mL / inhibition at 3.13 µg/mL / inhibition at 12.5 µg/mL / inhibition at 6.25 µg/mL / inhibition at 25 µg/mL / % Inhibition of growth by single active: 24 h; for inhibition at 0.39 µg/mL / inhibition at 0.78 µg/mL / inhibition at 1.56 µg/mL / inhibition at 3.13 µg/mL / inhibition at 12.5 µg/mL / inhibition at 6.25 µg/mL / inhibition at 25 µg/mL: read-out: % Inhibition of growth by single active; for I90 value: 24 hr
Excerpt: Growth Inhibition Assay. […] Regardless of the mechanism of action, the impact of a biocide (or combination of biocides) can be measured over time on the basis of an increase in the size of the community.
The assay measures the efficacy of one or more biocides at preventing growth of a consortium of bacteria in a dilute mineral salts medium. The medium contains (in mg/l) the following components: FeCl3.6H2O (1); CaCl2.2H2O (10); MgSO4.7H2O (22.5); (NH4)2SO4 (40); KH2PO4 (10); K2HPO4 (25.5); Yeast Extract (10); and glucose (100). After all components are added to deionized water, the pH of the medium is adjusted to 7.5. Following filter sterilization, aliquots are dispensed in 100 ul quantities to sterile microtiter plate wells. Dilutions of DBMAL and/or “Biocide B” are then added to the microtiter plate. After preparing the combinations of actives as illustrated below, each well is inoculated with 100 μl of a cell suspension containing ca. […] cells per milliliter of a mixture of Pseudomonas aeruginosa, Klebsiella pneumoniae, Staphylococcus aureus, and Bacillus subtilis. The final total volume of medium in each well is 300 μl. Once prepared as described herein, the concentration of each active ranges from 25 ppm to 0.19 ppm as illustrated in Table 1. The resulting matrix allows testing of eight concentrations of each active and 64 combinations of actives in the ratios (of actives).
Controls (not shown) contain the medium with no biocide added. After preparing the combinations of actives as illustrated above, each well is inoculated with 100 μl of a cell suspension containing ca. […] cells per milliliter of a mixture of Pseudomonas aeruginosa, Klebsiella pneumoniae, Staphylococcus aureus, and Bacillus subtilis. The final total volume of medium in each well is 300 μl.
Immediately after the microtiter plates are prepared, the optical density (OD) readings for each well is measured at 580 nm and the plates are then incubated at 37° C. for 24 hr. After the incubation period, the plates are gently agitated before OD580 values are collected. The OD580 values at T0 are subtracted from T24 values to determine the total amount of growth (or lack thereof) that occurs. These values are used to calculate the percent inhibition of growth caused by the presence of each biocide and each of the 64 combinations.
where • CDBMAL: Concentration of DBMAL required to inhibit ˜90% of bacterial growth when used alone • CB: Concentration of biocide (B) required to inhibit ˜90% of bacterial growth when used alone. • MDBMAL: Concentration of DBMAL required to inhibit ˜90% of bacterial growth when used in combination with biocide (B). • MB: Concentration of biocide (B) required to inhibit ˜90% of bacterial growth when used in combination with DBMAL
(§1) The SI values are interpreted as follows: • SI<1: Synergistic combination • SI=1: Additive combination • SI>1: Antagonistic combination
(§2) In the Examples below, the amounts of biocides in the solution are measured in mg per liter of solution (mg/l). Since solution densities are approximately 1.0, the mg/l measurement corresponds to weight ppm. Both units may therefore be used interchangeably in the Examples.

[2] = test system: mixture of Pseudomonas aeruginosa ATCC 10045 and Staphylococcus aureus ATCC 6538; assay: Kill assay (minimum biocide concentration, MBC); format: cell-based; details: single active, 37° C., 2 hours
Experimental: The procedure is as follows.
as §1, §2

| Structure (SMILES) | inhibition at 0.39 µg/mL ([1]; Table 3, 0.39 mg/l alone) [%] | inhibition at 0.78 µg/mL ([1]; Table 3, 0.78 mg/l alone) [%] | inhibition at 1.56 µg/mL ([1]; Table 3, 1.56 mg/l alone) [%] | inhibition at 3.13 µg/mL ([1]; Table 3, 3.13 mg/l alone) [%] | inhibition at 12.5 µg/mL ([1]; Table 3, 12.5 mg/l alone) [%] | inhibition at 0.78 µg/mL ([1]; Table 9, 0.78 mg/l alone) [%] | inhibition at 1.56 µg/mL ([1]; Table 9, 1.56 mg/l alone) [%] | inhibition at 3.13 µg/mL ([1]; Table 9, 3.13 mg/l alone) [%] | inhibition at 6.25 µg/mL ([1]; Table 9, 6.25 mg/l alone) [%] | I90 value ([1]; Example 2, single active) [mg/L] | I90 value ([1]; Example 3, single active) [mg/L] | I90 value ([1]; Example 4, single active) [mg/L] | MBC (minimum biocide concentration needed to completely kill the bacterial cells), biocide alone [2] [mg/L] | other results |
| --- | --- | --- | --- | --- | --- | --- | --- | --- | --- | --- | --- | --- | --- | --- |
| NC(=O)C(Br)(Br)C(N)=O [DBMAL, 2,2-dibromomalonamide] | 8 | 12 | 13 | 17 | 97 | 11 | 14 | 20 | 100 | 12.5 | 12.5 | 6.25 | 66.7 | inhibition at 0.39 µg/mL ([1]; Table 5, 0.39 mg/l alone): 1%; inhibition at 3.13 µg/mL ([1]; Table 5, 3.13 mg/l alone): 34%; inhibition at 6.25 µg/mL ([1]; Table 5, 6.25 mg/l alone): 65%; inhibition at 25 µg/mL ([1]; Table 5, 25.0 mg/l alone): 98%; inhibition at 0.39 µg/mL ([1]; Table 7, 0.39 mg/l alone): 23%; inhibition at 0.78 µg/mL ([1]; Table 7, 0.78 mg/l alone): 58%; inhibition at 1.56 µg/mL ([1]; Table 7, 1.56 mg/l alone): 52%; inhibition at 3.13 µg/mL ([1]; Table 7, 3.13 mg/l alone): 61%; inhibition at 6.25 µg/mL ([1]; Table 7, 6.25 mg/l alone): 41%; inhibition at 25 µg/mL ([1]; Table 7, 25.0 mg/l alone): 98% |
| O=[N+]([O-])C(Br)(CO)CO [Bronopol, 2-bromo-2-nitropropane-1,3-diol] | 0 | 0 | 0 | 67 | 99 | – | – | – | – | – | – | – | >150 | inhibition at 6.25 µg/mL ([1]; Table 3, 6.25 mg/l alone): 96%; inhibition at 25 µg/mL ([1]; Table 3, 25.0 mg/l alone): 97% |
| N#CCCC(Br)(C#N)CBr (stereo not drawn) [DBDCB, 1,2-Dibromo-2,4-dicyanobutane] | – | – | – | – | – | 0 | 17 | 43 | 100 | – | – | 6.25 | – | inhibition at 0.39 µg/mL ([1]; Table 9, 0.39 mg/l alone): 0%; inhibition at 12.5 µg/mL ([1]; Table 9, 12.5 mg/l alone): 99%; inhibition at 25 µg/mL ([1]; Table 9, 25.0 mg/l alone): 97% |
| O=[N+]([O-])C(Br)=Cc1ccccc1 [BNS, bromonitrostyrene] | – | – | – | – | – | – | – | – | – | 6.25 | – | – | – | % Inhibition of growth by single active ([1]; Table 5, 0.78 mg/l alone): 19%; % Inhibition of growth by single active ([1]; Table 5, 1.56 mg/l alone): 42%; % Inhibition of growth by single active ([1]; Table 5, 3.13 mg/l alone): 75% |
| N#CSCSC#N [MBT, methylene bis(thiocyanate)] | – | – | – | – | – | – | – | – | – | – | 0.78 | – | – | % Inhibition of growth by single active ([1]; Table 7, 0.39 mg/l alone): 24% |
